# Experimental data published in ChEMBL document CHEMBL6078666, “Discovery of Novel Coumarin Pleuromutilin Derivatives as Potent Anti-MRSA Agents” (J Med Chem, 2024).
# Columns and labels:
# Type in all cases: functional
# [1] = test system: Streptococcus pneumoniae; assay: Ratio of MBC to MIC against penicillin-resistant Streptococcus pneumoniae ATCC 51916
# [2] = test system: Enterococcus faecium; assay: Ratio of MBC to MIC against vancomycin-resistant Enterococcus faecium ATCC 51559
# [3] = test system: Staphylococcus epidermidis; assay: Ratio of MBC to MIC against Staphylococcus epidermidis ATCC 51625
# [4] = test system: Staphylococcus aureus; assay: Antibacterial activity against methicillin-resistant Staphylococcus aureus ATCC 43300 assessed as bacterial growth inhibition measured after 20 hrs by broth dilution method
# [5] = test system: Streptococcus pneumoniae; assay: Antibacterial activity against penicillin-resistant Streptococcus pneumoniae ATCC 51916 assessed as bacterial growth inhibition measured after 20 hrs by broth dilution method
# [6] = test system: Enterococcus faecium; assay: Antibacterial activity against vancomycin-resistant Enterococcus faecium ATCC 700221 assessed as bacterial growth inhibition measured after 20 hrs by broth dilution method
# [7] = test system: Streptococcus pneumoniae; assay: Ratio of MBC to MIC against penicillin-intermediate Streptococcus pneumoniae ATCC 49619
# [8] = test system: Staphylococcus aureus; assay: Ratio of MBC to MIC against Staphylococcus aureus ATCC 43300
# [9] = test system: Enterococcus faecium; assay: Ratio of MBC to MIC against vancomycin-resistant Enterococcus faecium ATCC 700221
# [10] = test system: Staphylococcus epidermidis; assay: Antibacterial activity against Staphylococcus epidermidis ATCC 51625 assessed as bacterial growth inhibition measured after 20 hrs by broth dilution method
# [11] = test system: Enterococcus faecium; assay: Antibacterial activity against vancomycin-resistant Enterococcus faecium ATCC 51559 assessed as bacterial growth inhibition measured after 20 hrs by broth dilution method
# [12] = test system: Streptococcus pneumoniae; assay: Antibacterial activity against penicillin-intermediate Streptococcus pneumoniae ATCC 49619 assessed as bacterial growth inhibition measured after 20 hrs by broth dilution method
# [13] = test system: Staphylococcus aureus; assay: Antibacterial activity against methicillin-resistant Staphylococcus aureus ATCC 33591 assessed as bacterial growth inhibition measured after 20 hrs by broth dilution method
# [14] = test system: Staphylococcus aureus; assay: Ratio of MBC to MIC against methicillin-resistant Staphylococcus aureus ATCC 33591
# [15] = test system: Staphylococcus epidermidis; assay: Antibacterial activity against methicillin-resistant Staphylococcus epidermidis clinical isolate 202409454 assessed as bacterial growth inhibition measured after 20 hrs by broth dilution method
# [16] = test system: Staphylococcus aureus; assay: Ratio of MBC to MIC against methicillin-resistant Staphylococcus aureus clinical isolate 202313160
# [17] = test system: Staphylococcus aureus; assay: Antibacterial activity against methicillin-resistant Staphylococcus aureus clinical isolate 202311772 assessed as bacterial growth inhibition measured after 20 hrs by broth dilution method
# [18] = test system: Staphylococcus epidermidis; assay: Antibacterial activity against methicillin-resistant Staphylococcus epidermidis clinical isolate 202409139 assessed as bacterial growth inhibition measured after 20 hrs by broth dilution method
# [19] = test system: Enterococcus faecium; assay: Antibacterial activity against vancomycin-resistant Enterococcus faecium clinical isolate 202308456 assessed as bacterial growth inhibition measured after 20 hrs by broth dilution method
# [20] = test system: Enterococcus faecium; assay: Ratio of MBC to MIC against vancomycin-resistant Enterococcus faecium clinical isolate 202308456
# [21] = test system: Staphylococcus aureus; assay: Antibacterial activity against methicillin-resistant Staphylococcus aureus clinical isolate 202405157 assessed as bacterial growth inhibition measured after 20 hrs by broth dilution method
# [22] = test system: Staphylococcus aureus; assay: Ratio of MBC to MIC against methicillin-resistant Staphylococcus aureus clinical isolate 202405157
# [23] = test system: Staphylococcus aureus; assay: Antibacterial activity against methicillin-resistant Staphylococcus aureus clinical isolate 202313160 assessed as bacterial growth inhibition measured after 20 hrs by broth dilution method
Structure (SMILES),Ratio [1],Ratio [2],Ratio [3],MIC [4],MIC [5],MIC [6],Ratio [7],Ratio [8],Ratio [9],MIC [10],MIC [11],MIC [12],MIC [13],Ratio [14],other results
C=C[C@]1(C)C[C@@H](OC(=O)CSCCOc2cc(=O)oc3ccc([N+](=O)[O-])cc23)[C@]2(C)[C@H](C)CC[C@]3(CCC(=O)[C@H]32)[C@@H](C)[C@@H]1O,>4,2,>4,0.125 µg/mL,0.063 µg/mL,0.063 µg/mL,2,>4,2,0.031 µg/mL,0.25 µg/mL,0.063 µg/mL,0.125 µg/mL,–,–
C=C[C@]1(C)C[C@@H](OC(=O)CSCCOc2cc(=O)oc3cc(Cl)ccc23)[C@]2(C)[C@H](C)CC[C@]3(CCC(=O)[C@H]32)[C@@H](C)[C@@H]1O,2,>4,>4,1 µg/mL,0.125 µg/mL,0.125 µg/mL,>4,>4,>4,0.125 µg/mL,0.5 µg/mL,0.063 µg/mL,0.25 µg/mL,–,–
C=C[C@]1(C)C[C@@H](OC(=O)CSc2cc(=O)oc3ccc(Br)cc23)[C@]2(C)[C@H](C)CC[C@]3(CCC(=O)[C@H]32)[C@@H](C)[C@@H]1O,>4,>4,>4,0.25 µg/mL,0.063 µg/mL,0.25 µg/mL,2,>4,>4,0.063 µg/mL,0.25 µg/mL,0.25 µg/mL,0.125 µg/mL,–,–
C=C[C@]1(C)C[C@@H](OC(=O)CSc2cc(=O)oc3ccc(OC)cc23)[C@]2(C)[C@H](C)CC[C@]3(CCC(=O)[C@H]32)[C@@H](C)[C@@H]1O,–,2,>4,0.125 µg/mL,0.125 µg/mL,0.063 µg/mL,>4,2,>4,0.063 µg/mL,0.125 µg/mL,0.125 µg/mL,0.125 µg/mL,4,–
C=C[C@]1(C)C[C@@H](OC(=O)CSc2cc(=O)oc3cc(C)ccc23)[C@]2(C)[C@H](C)CC[C@]3(CCC(=O)[C@H]32)[C@@H](C)[C@@H]1O,–,2,>4,0.063 µg/mL,–,0.031 µg/mL,>4,2,2,0.016 µg/mL,0.063 µg/mL,0.063 µg/mL,0.031 µg/mL,>4,MIC [15]: 0.063 µg/mL; Ratio [16]: 4; MIC [17]: 0.031 µg/mL; MIC [18]: 0.125 µg/mL; MIC [19]: 0.063 µg/mL; Ratio [20]: 2; MIC [21]: 0.125 µg/mL; Ratio [22]: 4; MIC [23]: 0.125 µg/mL
C=C[C@]1(C)C[C@@H](OC(=O)CSc2cc(=O)oc3ccc(Cl)cc23)[C@]2(C)[C@H](C)CC[C@]3(CCC(=O)[C@H]32)[C@@H](C)[C@@H]1O,4,2,>4,0.25 µg/mL,0.125 µg/mL,0.125 µg/mL,2,>4,>4,0.063 µg/mL,0.5 µg/mL,0.125 µg/mL,0.125 µg/mL,–,–
C=C[C@]1(C)C[C@@H](OC(=O)CSCCOc2cc(=O)oc3cc(C)ccc23)[C@]2(C)[C@H](C)CC[C@]3(CCC(=O)[C@H]32)[C@@H](C)[C@@H]1O,4,1,4,0.25 µg/mL,0.25 µg/mL,0.125 µg/mL,2,>4,2,0.063 µg/mL,0.25 µg/mL,0.125 µg/mL,0.125 µg/mL,–,–
C=C[C@]1(C)C[C@@H](OC(=O)CSCCOc2cc(=O)oc3ccc(Br)cc23)[C@]2(C)[C@H](C)CC[C@]3(CCC(=O)[C@H]32)[C@@H](C)[C@@H]1O,4,2,>4,1 µg/mL,2 µg/mL,1 µg/mL,>4,2,2,0.25 µg/mL,16 µg/mL,2 µg/mL,0.25 µg/mL,>4,–
